From patent publication US9000162B2, “5,8-difluoro-4-(2-(4-(heteroaryloxy)-phenyl)ethylamino)quinazolines and their use as agrochemicals” (Dow AgroSciences LLC, priority 2008, dated 2015)

Columns and labels:
Type in all cases: in vivo
[1] = tested on: Septoria tritici (SEPTTR); assay: Septoria blotch of wheat foliar protectant test; conditions: Zymoseptoria tritici, read-out: Activity against fungal diseases SEPTTR; for pest or weed control at 200 ppm: 200 ppm foliar, inoculated one day after treatment; for pest or weed control at 25 ppm: foliar, Tested at 25 ppm (footnote b)
Experimental: (§1) The plants were inoculated with the fungus one day after treatment. ***=80-100% control; **=50-79% control; *=0-49% control. It will be understood by those in the art that the efficacy of the compounds against the foregoing fungi establishes the general utility of the compounds as fungicides. The activity of the compounds as effective fungicides was determined by applying the compounds to plants and observing control of fungal disease. […] All plants were inoculated with spores of the fungus the day after treatment, then incubated in an environment conducive to disease development. Disease severity was evaluated 4 to 25 days later, depending on the speed of disease development. The following experiments were performed in the laboratory to determine the fungicidal efficacy of the compounds of the invention. […] Each pot contained 3-10 seedlings. These plants were sprayed until wet with the formulated test compound. On the following day, the leaves were inoculated with an aqueous spore suspension of Septoria tritici and the plants were kept in high humidity (one day in a dark dew chamber followed by three days in a lighted dew chamber) to permit spores to germinate and infect the leaf. The plants were then transferred to a greenhouse until disease developed on untreated control plants. Table 1 presents the activity of typical compounds of the present invention when evaluated in these experiments. The effectiveness of the test compounds at controlling disease when sprayed on leaves was determined by assessing the severity of disease on treated plants, then converting the severity to percent control based on the level of disease on untreated, inoculated plants.

[2] = tested on: Puccinia recondita tritici (PUCCRT); assay: Leaf rust of wheat foliar protectant test; conditions: read-out: Activity against fungal diseases PUCCRT; for pest or weed control at 200 ppm: 200 ppm foliar, inoculated one day after treatment; for pest or weed control at 3 ppm: foliar, Tested at 3 ppm (footnote a)
Experimental: as §1, with “3-8” for “3-10”, “compounds.” for “compound.”, “Puccinia recondita” for “Septoria”, “overnight” for “(one day in a dark dew chamber followed by three days in a lighted dew chamber)”

[3] = tested on: Pseudoperonospora cubensis (PSPECU); assay: Cucumber downy mildew foliar protectant test; conditions: 200 ppm foliar, inoculated one day after treatment, read-out: Activity against fungal diseases PSPECU
Experimental: The plants were inoculated with the fungus one day after treatment. ***=80-100% control; **=50-79% control; *=0-49% control. It will be understood by those in the art that the efficacy of the compounds against the foregoing fungi establishes the general utility of the compounds as fungicides. The activity of the compounds as effective fungicides was determined by applying the compounds to plants and observing control of fungal disease. […] All plants were inoculated with spores of the fungus the day after treatment, then incubated in an environment conducive to disease development. Disease severity was evaluated 4 to 25 days later, depending on the speed of disease development. The following experiments were performed in the laboratory to determine the fungicidal efficacy of the compounds of the invention. Cucumber Downy Mildew (Causal Agent Pseudoperonospora cubensis; Bayer Code […]): Cucumber plants (variety “Bush Champion' or 'Bush Pickle Hybrid') were grown from seed in a soil-less peat-based potting mixture (Metromix) until the first true leaf was 20-80% expanded. Each pot contained 1 seedling. These plants were sprayed until wet with the formulated test compound. On the following day, the leaves were inoculated with an aqueous suspension of downy mildew sporangia and the plants were kept in high humidity for one day to permit sporangia to germinate and infect the leaf. The plants were then incubated in a growth chamber until disease developed on untreated control plants. Table 1 presents the activity of typical compounds of the present invention when evaluated in these experiments. The effectiveness of the test compounds at controlling disease when sprayed on leaves was determined by assessing the severity of disease on treated plants, then converting the severity to percent control based on the level of disease on untreated, inoculated plants.

[4] = tested on: Magnaporthe grisea = Pyricularia oryzae (PYRIOR); assay: whole plant or invertebrate; conditions: foliar, read-out: Activity against fungal diseases PYRIOR

Molecule `Oc1ccc(CCNc2ncnc3c(F)ccc(F)c23)cc1Cl` [Compound 87] has a pest or weed control at 200 ppm [1] of 0 to 49%, a pest or weed control at 200 ppm [2] of 0 to 49% and a pest or weed control at 200 ppm [3] of 50 to 79%. The pest or weed control at 200 ppm [4] was 0 to 49%.
Work on `Oc1ccc(CCNc2ncnc3c(F)ccc(F)c23)cc1F` [Compound 47] yielded a pest or weed control at 200 ppm [1] of 0 to 49%, a pest or weed control at 200 ppm [2] of 0 to 49% and a pest or weed control at 200 ppm [3] of 0 to 49%. The pest or weed control at 200 ppm [4] was 50 to 79%.
For `N#Cc1cc(Oc2ccc(CCNc3ncnc4c(F)ccc(F)c34)cc2)ncc1Cl` [Compound 126], the pest or weed control at 25 ppm [1] was 80 to 100%, the pest or weed control at 200 ppm [2] was 80 to 100% and the pest or weed control at 200 ppm [3] was 80 to 100%. The pest or weed control at 200 ppm [4] was 80 to 100%.
For `Fc1ccc(F)c2c(NCCc3ccc(Oc4ccnc(Cl)c4)cc3)ncnc12` [Compound 107], the pest or weed control at 25 ppm [1] was 80 to 100%, the pest or weed control at 200 ppm [2] was 80 to 100% and the pest or weed control at 200 ppm [3] was 80 to 100%. The pest or weed control at 200 ppm [4] was 80 to 100%.
With `COc1cc(CCNc2ncnc3c(F)ccc(F)c23)ccc1Oc1cc(Cl)nc(C(F)(F)F)n1` [Compound 104] the pest or weed control at 200 ppm [1] was 0 to 49%, the pest or weed control at 200 ppm [2] was 80 to 100% and the pest or weed control at 200 ppm [4] was 80 to 100%.
`Fc1ccc(F)c2c(NCCc3ccc(Oc4cc(C(F)(F)F)ncn4)cc3)ncnc12` [Compound 109] was tested, and the pest or weed control at 200 ppm [1] was 80 to 100%, the pest or weed control at 200 ppm [2] was 80 to 100% and the pest or weed control at 200 ppm [4] was 80 to 100%.
`COc1cc(CCNc2ncnc3c(F)ccc(F)c23)ccc1Oc1ccnc(C(F)(F)F)c1` [Compound 77] gave a pest or weed control at 200 ppm [1] of 80 to 100%, a pest or weed control at 200 ppm [2] of 80 to 100% and a pest or weed control at 200 ppm [3] of 80 to 100%. For the same molecule, the pest or weed control at 200 ppm [4] was 80 to 100%.
`Oc1ccc(CCNc2ncnc3c(F)ccc(F)c23)cc1Br` [Compound 38] gave a pest or weed control at 200 ppm [2] of 0 to 49%, a pest or weed control at 200 ppm [3] of 0 to 49% and a pest or weed control at 200 ppm [4] of 0 to 49%.
Molecule `Fc1cc(CCNc2ncnc3c(F)ccc(F)c23)ccc1Oc1cc(C(F)(F)F)ncn1` [Compound 132] has a pest or weed control at 200 ppm [1] of 80 to 100%, a pest or weed control at 200 ppm [2] of 80 to 100% and a pest or weed control at 200 ppm [3] of 80 to 100%. The pest or weed control at 200 ppm [4] was 80 to 100%.
`COc1cc(CCNc2ncnc3c(F)cc(F)c(F)c23)ccc1O` [Compound 33] gave a pest or weed control at 25 ppm [1] of 0 to 49% and a pest or weed control at 3 ppm [2] of 0 to 49%.
Work on `Cc1cc(CCNc2ncnc3c(F)ccc(F)c23)ccc1Oc1nc(C(F)(F)F)nc(F)c1F` [Compound 102] yielded a pest or weed control at 200 ppm [1] of 0 to 49%, a pest or weed control at 200 ppm [2] of 80 to 100% and a pest or weed control at 200 ppm [4] of 80 to 100%.
`CC(Cc1ccc(Oc2ccc(C(F)(F)F)cn2)cc1)Nc1ncnc2c(F)ccc(F)c12` (stereo not shown) [Compound 136] showed a pest or weed control at 25 ppm [1] of 80 to 100% and a pest or weed control at 3 ppm [2] of 80 to 100%.
With `Fc1ccc(F)c2c(NCCc3ccc(Oc4ccnc(C(F)(F)F)c4Cl)cc3)ncnc12` [Compound 96] the pest or weed control at 200 ppm [1] was 80 to 100%, the pest or weed control at 200 ppm [2] was 80 to 100% and the pest or weed control at 200 ppm [3] was 80 to 100%. It also gave a pest or weed control at 200 ppm [4] of 80 to 100%.
For `Cc1ccnc(Oc2ccc(CCNc3ncnc4c(F)ccc(F)c34)cc2)c1` [Compound 128], the pest or weed control at 25 ppm [1] was 50 to 79% and the pest or weed control at 3 ppm [2] was 80 to 100%.
In the case of `COc1ccc(C(C)Nc2ncnc3c(F)ccc(F)c23)cc1` (stereo not shown) [Compound 120], the pest or weed control at 200 ppm [1] is reported as 0 to 49% and the pest or weed control at 200 ppm [2] is reported as 80 to 100%.
With `COc1cc(CCNc2ncnc3c(F)ccc(F)c23)ccc1Oc1ccnc(Cl)c1` [Compound 108] the pest or weed control at 200 ppm [1] was 80 to 100%, the pest or weed control at 200 ppm [2] was 80 to 100% and the pest or weed control at 200 ppm [3] was 0 to 49%. It also gave a pest or weed control at 200 ppm [4] of 0 to 49%.
`Fc1ccc(F)c2c(NCCc3ccc(Oc4cncc(C(F)(F)F)c4)cc3)ncnc12` [Compound 123] was tested, and the pest or weed control at 25 ppm [1] was 80 to 100% and the pest or weed control at 3 ppm [2] was 80 to 100%.
In the case of `Cc1cc(C(F)(F)F)cc(Oc2cc(C)c(CCNc3ncnc4c(F)ccc(F)c34)cc2C)n1` [Compound 22], the pest or weed control at 25 ppm [1] is reported as 80 to 100%, the pest or weed control at 200 ppm [2] is reported as 80 to 100% and the pest or weed control at 200 ppm [4] is reported as 50 to 79%.
`COc1ccc(C(C)CNc2ncnc3c(F)ccc(F)c23)cc1` (stereo not shown) [Compound 139] gave a pest or weed control at 25 ppm [1] of 0 to 49% and a pest or weed control at 3 ppm [2] of 0 to 49%.
Work on `CC(CNc1ncnc2c(F)ccc(F)c12)c1ccc(Oc2ccc(C(F)(F)F)cn2)cc1` (stereo not shown) [Compound 143] yielded a pest or weed control at 25 ppm [1] of 80 to 100% and a pest or weed control at 3 ppm [2] of 0 to 49%.
Molecule `CC(CNc1ncnc2c(F)ccc(F)c12)c1ccc(Oc2ncc(C(F)(F)F)cc2F)cc1` (stereo not shown) [Compound 145] has a pest or weed control at 25 ppm [1] of 50 to 79% and a pest or weed control at 3 ppm [2] of 0 to 49%.
In the case of `Fc1ccc(F)c2c(OCCc3ccc(OCC(F)(F)F)cc3)ncnc12` [Compound 121], the pest or weed control at 25 ppm [1] is reported as 50 to 79% and the pest or weed control at 3 ppm [2] is reported as 0 to 49%.
`Oc1cccc(CCNc2ncnc3c(F)ccc(F)c23)c1` [Compound 35] gave a pest or weed control at 200 ppm [2] of 50 to 79% and a pest or weed control at 200 ppm [3] of 80 to 100%.
With `Fc1cc(F)c2ncnc(NCCc3ccc(Oc4cc(C(F)(F)F)ccn4)c(Cl)c3)c2c1F` [Compound 92] the pest or weed control at 200 ppm [1] was 50 to 79%, the pest or weed control at 200 ppm [2] was 50 to 79% and the pest or weed control at 200 ppm [4] was 80 to 100%.
`CC(Cc1ccc(Oc2cnccc2C(F)(F)F)cc1)Nc1ncnc2c(F)ccc(F)c12` (stereo not shown) [Compound 138] gave a pest or weed control at 25 ppm [1] of 80 to 100% and a pest or weed control at 3 ppm [2] of 80 to 100%.
Work on `CC(CNc1ncnc2c(F)ccc(F)c12)c1ccc(Oc2cnccc2C(F)(F)F)cc1` (stereo not shown) [Compound 141] yielded a pest or weed control at 25 ppm [1] of 80 to 100% and a pest or weed control at 3 ppm [2] of 80 to 100%.
`CC(Cc1ccc(Oc2cc(C(F)(F)F)ccn2)cc1)Nc1ncnc2c(F)ccc(F)c12` (stereo not shown) [Compound 134] was tested, and the pest or weed control at 25 ppm [1] was 80 to 100% and the pest or weed control at 3 ppm [2] was 80 to 100%.
`Fc1ccc(F)c2c(NCCc3ccc(Oc4ccnc(C(F)(F)F)c4)cc3)ncnc12` [Compound 71] showed a pest or weed control at 25 ppm [1] of 80 to 100% and a pest or weed control at 3 ppm [2] of 80 to 100%.
Molecule `CC(Cc1ccc(Oc2cc(C(F)(F)F)ncn2)cc1)Nc1ncnc2c(F)ccc(F)c12` (stereo not shown) [Compound 135] has a pest or weed control at 25 ppm [1] of 80 to 100% and a pest or weed control at 3 ppm [2] of 80 to 100%.
`CC(Cc1ccc(Oc2ncc(C(F)(F)F)cc2F)cc1)Nc1ncnc2c(F)ccc(F)c12` (stereo not shown) [Compound 137] was tested, and the pest or weed control at 25 ppm [1] was 80 to 100% and the pest or weed control at 3 ppm [2] was 50 to 79%.
Molecule `COc1ccc2c(c1)CC(Nc1ncnc3c(F)ccc(F)c13)C2` (stereo not shown) [Compound 105] has a pest or weed control at 200 ppm [1] of 0 to 49%, a pest or weed control at 200 ppm [2] of 80 to 100% and a pest or weed control at 200 ppm [4] of 80 to 100%.
`CC(CNc1ncnc2c(F)ccc(F)c12)c1ccc(Oc2cc(C(F)(F)F)ncn2)cc1` (stereo not shown) [Compound 142] was tested, and the pest or weed control at 25 ppm [1] was 80 to 100% and the pest or weed control at 3 ppm [2] was 80 to 100%.
`Fc1ccc(F)c2c(NCCc3ccc(Oc4cc(Cl)nc(C(F)(F)F)n4)cc3)ncnc12` [Compound 103] showed a pest or weed control at 200 ppm [1] of 0 to 49%, a pest or weed control at 200 ppm [2] of 80 to 100% and a pest or weed control at 200 ppm [4] of 80 to 100%.
In the case of `CC(CNc1ncnc2c(F)ccc(F)c12)c1ccc(Oc2cc(C(F)(F)F)ccn2)cc1` (stereo not shown) [Compound 144], the pest or weed control at 25 ppm [1] is reported as 80 to 100% and the pest or weed control at 3 ppm [2] is reported as 80 to 100%.
With `Fc1ccc(F)c2c(NCCc3ccc(Oc4ncccc4C(F)(F)F)cc3)ncnc12` [Compound 13] the pest or weed control at 25 ppm [1] was 80 to 100% and the pest or weed control at 3 ppm [2] was 80 to 100%.
`COC(=O)c1cnc(Oc2ccc(CCNc3ncnc4c(F)ccc(F)c34)cc2C)cc1C(F)(F)F` [Compound 36] showed a pest or weed control at 25 ppm [1] of 0 to 49%, a pest or weed control at 200 ppm [2] of 80 to 100% and a pest or weed control at 200 ppm [3] of 80 to 100%.
